Results reported in patent US20100119997A1, “METHOD FOR PRODUCTION OF MESENCHYMAL CELL, METHOD FOR PRODUCTION OF TOOTH, AND MESENCHYMAL CELL FOR FORMATION OF TOOTH” (ORGAN TECHNOLOGIES INC., priority 2007, published 2010).

What was measured:
AT805 cells (EC cells) [1] = experiment: Differentiation induction of EC cells by DMSO, CD44/CD29 double staining and cell sorter; assay type: cell-based, mouse; details: for CD44-positive and CD29-positive cells / Cell number: 14 h treatment
Experimental: As the EC cells, AT805 cells (a clone derived from OTT6050, EC cells of the strain129; obtained from the Cell Bank, RIKEN Bioresource Center) were used. Culturing of AT805 cells was performed using Dulbecco's modified Eagle's medium (DMEM; manufactured by SIGMA or Kohjin Bio Co. Ltd.) supplemented with 10% by volume fetal calf serum (FCS: manufactured by JRH, JBS or Hyclone) and 55 μM 2-mercaptoethanol (manufactured by GIBCO). EC cells were usually plated at a concentration of 5 to 8×10^5 cells per 100 mm dish, and complete replacement of the medium and passage culture were repeated every other day. In passage culture, the cells were washed once with HCMF buffer (pH7.4; 10 mM Hepes, 136.9 mM NaCl, 0.34 mM […], 13.9 mM glucose, 5.37 mM KCl), and 5 ml of an enzyme solution wherein trypsin-EDTA.2Na (manufactured by GIBCO) was dissolved at the final concentration of 0.025% was then added thereto, followed by an enzyme treatment at 37° C. for 1 minute. Subsequently, an equal amount of DMEM supplemented with 10% FCS was added to disperse the cells, and the cells were then precipitated and collected by centrifugation. The collected cells were resuspended and plated on a new culture dish to carry out passage culture.
EC cells collected by trypsin treatment were suspended in DMEM supplemented with 10% by volume FCS and dimethylsulfoxide (DMSO: manufactured by SIGMA) at the final concentration of 0.5 to 5% by volume, and plated at the concentration of 1.0×10^6 cells per 100 mm dish. Culture was carried out under 5% CO2 at 37° C., and after 14 hours, the cells were washed once with HCMF buffer, followed by replacement of the medium with DMEM supplemented with 10% by volume FCS.
EC cells treated with DMSO was continuously cultured for 6 days (19 days only in the case of 5% by volume DMSO) with replacement of a half amount of the medium every 3 days with DMEM supplemented with 10% by volume FCS, and observation was carried out as appropriate. When a cell population containing undifferentiated cells was grown, it washed once with HCMF buffer and then suspended by addition of Ca^2+/Mg^2+-free PBS(−)(EDTA/BSA-PBS) supplemented with 3 mM EDTA and 0.5% BSA, followed by centrifugation to collect cells as precipitates. The cells were resuspended in EDTA/BSA-PBS and then subjected to double staining with an FITC-labeled anti-CD44 antibody (CD44-FITC: manufactured by BD Pharmingen) and a PE-labeled anti-CD29 antibody (CD29-PE: manufactured by BD Pharmingen). A CD44-positive and CD29-positive cell fraction was isolated using a cell sorter, Epics ALTRA (manufactured by Beckman Coulter), to obtain an EC cell fraction wherein differentiation was induced by a DMSO treatment and undifferentiated EC cell were excluded (see FIG. 2). These cells were designated DMSO-EC cells.

AT805 cells (EC cells) [2] = experiment: Differentiation induction of EC cells by retinoic acid, CD44/CD29 double staining and cell sorter; assay type: cell-based, mouse; details: 72 h treatment, 7 culture days
Experimental: AT805 cells collected by a trypsin treatment in the same manner as in Example 1 were plated at a concentration of 1.0×10^6 cells per 100 mm dish, and, on the next day, the medium was replaced with DMEM supplemented with 10% by volume FCS, which was also added with retinoic acid (manufactured by SIGMA) at a final concentration of 0 to 10.0 μM, to stimulate the cells. After 72 hours of culture, the cells were washed twice with HCMF buffer, and the whole medium was replaced with DMEM supplemented with 10% by volume FCS only.
Culturing was continued for 7 days with replacement of a half amount of the medium every 3 days with DMEM supplemented with 10% by volume FCS, and observation was carried out as appropriate. A cell population grown after the RA treatment, which contains undifferentiated cells, was washed once with HCMF, and 3 mM EDTA-0.5% BSA-PBS(−) was added thereto, followed by incubation thereof at 37° C. After collecting cells, the cells were subjected to double staining with CD44 FITC (BD Pharmingen) and CD29 (BD Pharmingen) PE to separate and obtain CD44-positive and CD29-positive cells using Epics ALTRA (Beckman Coulter), and thus a cell population after exclusion of undifferentiated cells, which cell population is composed of only differentiated cells, was obtained. These cells were designated RA-EC cells.

[3] = DMSO 5.0 v/v %, 19 culture days

SMILES: C[S+](C)[O-] [DMSO, dimethyl sulfoxide]
- Survival of EC cells immediately after treatment (AT805 cells (EC cells) [1]; 5% by volume DMSO): most cells died immediately after the treatment
- CD44-positive and CD29-positive cells (AT805 cells (EC cells) [1]; DMSO 0.5 v/v %, 6 culture days): 0.3%
- Cell number (AT805 cells (EC cells) [1]; DMSO 0.5 v/v %, 6 culture days): 1.15 ×10^7 cells
- CD44-positive and CD29-positive cells (AT805 cells (EC cells) [1]; DMSO 1.0 v/v %, 6 culture days): 0.5%
- Cell number (AT805 cells (EC cells) [1]; DMSO 1.0 v/v %, 6 culture days): 1.19 ×10^7 cells
- CD44-positive and CD29-positive cells (AT805 cells (EC cells) [1]; DMSO 2.5 v/v %, 6 culture days): 13.7%
- Cell number (AT805 cells (EC cells) [1]; DMSO 2.5 v/v %, 6 culture days): 1.64 ×10^7 cells
- CD44-positive and CD29-positive cells (AT805 cells (EC cells) [1]; [3]): 93.0%
- Cell number (AT805 cells (EC cells) [1]; [3]): 2.83 ×10^7 cells

SMILES: CC1=C(/C=C/C(C)=C/C=C/C(C)=C/C(=O)O)C(C)(C)CCC1 [RA, retinoic acid]
- CD44-positive and CD29-positive cells (AT805 cells (EC cells) [2]; RA 0.5 μM): 10.8%
- Cell number (AT805 cells (EC cells) [2]; RA 0.5 μM): 1.5 ×10^6 cells
- CD44-positive and CD29-positive cells (AT805 cells (EC cells) [2]; RA 1.0 μM): 10.0%
- Cell number (AT805 cells (EC cells) [2]; RA 1.0 μM): 1.1 ×10^6 cells
- CD44-positive and CD29-positive cells (AT805 cells (EC cells) [2]; RA 2.0 μM): 11.3%
- Cell number (AT805 cells (EC cells) [2]; RA 2.0 μM): 1.3 ×10^6 cells
- CD44-positive and CD29-positive cells (AT805 cells (EC cells) [2]; RA 5.0 μM): 11.5%
- Cell number (AT805 cells (EC cells) [2]; RA 5.0 μM): 0.5 ×10^6 cells
- CD44-positive and CD29-positive cells (AT805 cells (EC cells) [2]; RA 10.0 μM): 10.4%
- Cell number (AT805 cells (EC cells) [2]; RA 10.0 μM): 0.7 ×10^6 cells
